Laboratory results published in patent US11242555B2, “Molecular sensors and uses thereof” (New York University, priority 2018, dated 2022).
“Also recorded” adds a separate entry of the source. Starred links: 1 amine or outer side, 2 acyl side, 3 side chain; linkers in the order of their positions; H or OH if unused. Positions of bridges follow the written chain, without caps; N, C: chain ends. Non-standard residues stand in square brackets, D forms with d. Residues, ends and D or L forms follow the SMILES beside them. Chains are numbered I, II in the order given. Actinocin(9to1) = Cc1c2oc3c(C)ccc(C(=O)[*:1])c3nc-2c(C(=O)[*:2])c(N)c1=O; NMeV = CN[C@H](C(=O)O)C(C)C; Sar = CNCC(=O)O

Key:
[1] = test system: flexible molecular sensor (DNA); assay: Flexible (tongs-shaped) molecular sensor in solution, groove binders and polypeptides (FRET ratio); type: binding; conditions: for FRET ratio as a function of drug concentration, with Mg / FRET ratio as a function of drug concentration, absence of Mg: flexible sensor; for FRET ratio as a function of drug concentration, with Mg: 20 mM MgCl added to solution; for FRET ratio as a function of drug concentration, absence of Mg: no Mg; for FRET ratio as a function of compound concentration: flexible sensor in solution
DNA within living cells = assay: Linear probe in living cells transfected with the oligo probe (confocal FRET ratio); type: cell-based; conditions: for FRET ratio (Cy5:Cy3) in cells in presence of intercalating drug vs no drug: cells transfected with linear probe, drug in culture medium
Procedure: Cells transfected with the oligo probe were imaged by exciting the donor (Cy3) and imaging the fluorescence of Cy3 (A) and Cy5 (acceptor) (B) in the appropriate spectral ranges using a confocal microscope. (C) The false-colored images can be merged, therefore producing a false color image where orange indicates a large FRET ratio. […] (G) The drop in the FRET ratio is measured by calculating the ratio of the Cy5 signal to that of Cy3 within the nuclei of cells in presence of the three intercalating compounds.
The molecular sensors were used in cell culture according to the following: 1) the desired cells were prepared in glass-bottom culture dishes or wells to a confluence lower than 70%. 2) Two hours before imaging, a desired transfection protocol (e.g., liposome transfection), and the like) is used with either sensor depending on the desired mode of DNA binding to be investigated. 3) After the transfection period, the culture was washed from excess sensors. 4) The culture disk was transferred to the confocal microscope for imaging. […] 6) If using filter cubes use the appropriate cubes to image donor fluorescence in one channel and acceptor fluorescence in the other. If using spectral imaging set the imaging wavelength windows for the two fluorophores. 7) Cells were identified that have been successfully transfected as indicated by fluorescence throughout the cell. 8) Images were acquired in both channels. 9) Software to calculate the ratio of acceptor/donor fluorescence (the FRET ratio) for the desired regions within the imaged cells was used. 10) The desired drug to be tested was added. 11) The cells were imaged again and the FRET ratio was calculated as a function of the desired variable: e.g. time, drug concentration, region within the cell, etc. A change in the FRET ratio indicates DNA drug binding.
Using laser scanning confocal microscopy the cells are imaged by exciting the donor (Cy3) and imaging the fluorescence of Cy3 and Cy5 (acceptor) in the appropriate spectral ranges (images A, B, D, E). The false-colored images can be merged therefore producing a false color image where green indicates a small FRET ratio and red a large FRET ratio and intermediate values being yellow/orange (images C and F). […] The FRET ratio can be measured from the ratio of Cy5:Cy3 intensities.
Cells were transfected with the sensor and imaged in culture medium as described in FIG. 17. […] The average FRET ratio measured as Cy5:Cy3 intensities in the images is plotted as a function of time in the lower right panel.

[2] = test system: double-stranded oligo probe (DNA); assay: Linear oligo probe titration with intercalating drug in solution (FRET ratio, Hill plot binding constant); conditions: for binding constant: Hill plot fit of fraction of intercalated bases vs drug concentration, all binding sites assumed occupied at saturation
[3] = test system: double-stranded oligo probe (DNA); assay: High-throughput screen of a compound library with the linear oligo probe (FRET ratio, 384 well plate); type: binding
Procedure: A library of compounds was mixed with the oligo probe in 384 well plate format. (A) The fluorescence spectra of the probe were recorded on a plate reader as in FIG. 21 and the FRET ratio (Cy5/Cy3 intensity) was calculated. […] (B) A library consisting of 1600 compounds from FDA and internationally approved drugs was screened to detect potential intercalators that can be drug repositioning targets.
The molecular sensors were used in vitro according to the following: 1) The sensors were diluted in a NaCl solution (e.g., in a 50-100 mM NaCl solution) and 0.2% BSA solution to a concentration of 1 μM. This can be adjusted depending on the sensitivity of the fluorescence measurement device. 2) The fluorescence spectrum was measured using a fluorescence spectrophotometer, a plate reader, or any other ad-hoc means. […] 3) The molecular species was added to be characterized for DNA binding properties or to be tested for intercalating or groove binding ability. The appropriate sensor is used (e.g., a linear or flexible molecular sensor). The fluorescence spectrum was measured again using the same methods and settings. 4) The FRET ratio was compared for both the sensor alone and sensor plus tested molecule. The FRET ratio is calculated by dividing the peak intensity of the acceptor fluorescence by that of the donor fluorescence.

[4] = test system: nuclei of cells in culture; assay: Flexible sensor FRET ratio within nuclei of cells treated with chromatin-disrupting drugs (macromolecular crowding); type: cell-based; conditions: flexible sensor within nuclei of cells in culture medium
Procedure: The flexible molecular sensors reports on the local macromolecular crowding within living cells in culture (FIG. 5). The sensor was introduced into cells by liposome transfection. After a short incubation period of 45 minutes, the cells plated on an imaging well were washed and imaged using scanning laser confocal microscopy. The cells were then imaged by exciting the donor (Cy3) and imaging the fluorescence of Cy3 and Cy5 (acceptor) in the appropriate spectral ranges (top two images). The false-colored images can be merged therefore producing another false color image where green (FIG. 5—top left) indicates a small FRET ratio and red (FIG. 5—top right) a large FRET ratio an intermediate values being yellow/orange (FIG. 5—bottom left). A quantitative measurement of the FRET ratio is represented as a gray scale image (FIG. 5—bottom right) where each pixel is in the ratio of the intensity in the Cy5 channel divided by that in the Cy3 channel. Local variations indicate local differences in the degree of macromolecular crowding.
Drugs that disrupt chromatin compaction result in a more crowded nucleus (FIG. 11). The FRET ratio was measured within the nuclei of cells in culture medium in the absence and presence of drugs that disrupt chromatin structure. Three drugs that disrupt chromatin in different ways were used: trichostatin A (TSA) and tubacin both of which inhibit histone deacetylases, and etoposide which forms a complex with DNA and topisomerase II resulting in the accumulation of DNA breaks.

Molecule: COC1C(O)CC(OC2CC(Oc3cc4cc5c(c(O)c4c(O)c3C)C(=O)[C@@H](OC3CC(OC4CC(OC6CC(C)(O)C(OC(C)=O)C(C)O6)C(O)C(C)O4)C(O)C(C)O3)[C@H]([C@H](OC)C(=O)[C@@H](O)[C@@H](C)O)C5)OC(C)C2OC(C)=O)OC1C (stereo partly drawn) [Chromomycin]
- FRET ratio as a function of drug concentration, with Mg [1]: FRET ratio increases as a function of drug concentration
- FRET ratio as a function of drug concentration, absence of Mg [1]: no change in the FRET ratio

Molecule: Cc1c2oc3c(C)ccc(C(=O)N[C@@H]4C(=O)N[C@H](C(C)C)C(=O)N5CCC[C@H]5C(=O)N(C)CC(=O)N(C)[C@@H](C(C)C)C(=O)O[C@@H]4C)c3nc-2c(C(=O)N[C@@H]2C(=O)N[C@H](C(C)C)C(=O)N3CCC[C@H]3C(=O)N(C)CC(=O)N(C)[C@@H](C(C)C)C(=O)O[C@@H]2C)c(N)c1=O [DACTINOMYCIN] (I: T[dV]P[Sar][NMeV] / II: T[dV]P[Sar][NMeV]; ester I:1-I:C, II:1-II:C; linker I:N-II:N via Actinocin(9to1))
- FRET ratio (Cy5:Cy3) in cells in presence of intercalating drug vs no drug (DNA within living cells): drop if the FRET efficiency upon intercalation within the cell
- FRET ratio (Cy5:Cy3) in cells in presence of intercalating drug vs no drug (DNA within living cells; listed as Actinomycin D): decrease in the FRET ratio; also recorded: clear difference in FRED ratio
- time-course of drug entry into the cell (drop in FRET ratio within the nucleus) (DNA within living cells; time-lapse after drug was introduced into the culture medium): from orange (high FRET) to green (low FRET)
- binding constant [2]: 2e+06 M⁻¹
- FRET ratio as a function of intercalator concentration ([2]; linear probe in solution, excited at 500 nm, peak acceptor/peak donor): decreases
- FRET ratio [3]: 0.4765

Molecule: CS[C@H]1SC[C@H]2C(=O)N(C)[C@@H](C(C)C)C(=O)OC[C@@H](NC(=O)c3cnc4ccccc4n3)C(=O)N[C@@H](C)C(=O)N(C)[C@@H]1C(=O)N(C)[C@@H](C(C)C)C(=O)OC[C@@H](NC(=O)c1cnc3ccccc3n1)C(=O)N[C@@H](C)C(=O)N2C [Echinomycin]
- FRET ratio (Cy5:Cy3) in cells in presence of intercalating drug vs no drug (DNA within living cells): clear difference in FRED ratio
- binding constant [2]: 400000 M⁻¹

Molecule: N=C(N)c1ccc(-c2ccc(-c3ccc(C(=N)N)cc3)o2)cc1 [Fourmadine]
- FRET ratio as a function of compound concentration [1]: concentration-dependent increase of the FRET ratio

Molecule: Cn1cc(NC(=O)c2cc(NC(=O)CN=C(N)N)cn2C)cc1C(=O)NCCC(=N)N [Netrospin]
- FRET ratio as a function of compound concentration [1]: concentration-dependent increase of the FRET ratio

Molecule: N=C(N)c1ccc(OCCCCCOc2ccc(C(=N)N)cc2)cc1 [Pentamidine]
- FRET ratio as a function of compound concentration [1]: concentration-dependent increase of the FRET ratio

Molecule: c1cnc2c(c1)ccc1cccnc12 [Phenanthroline]
- FRET ratio (Cy5:Cy3) in cells in presence of intercalating drug vs no drug (DNA within living cells): clear difference in FRED ratio
- binding constant [2]: 710 M⁻¹

Molecule: COc1cc([C@@H]2c3cc4c(cc3[C@@H](O[C@@H]3O[C@@H]5CO[C@@H](C)O[C@H]5[C@H](O)[C@H]3O)[C@H]3COC(=O)[C@H]23)OCO4)cc(OC)c1O [etoposide]
- FRET ratio in nuclei of treated cells compared to untreated cells [4]: larger FRET ratio

Molecule: CC(/C=C/C(=O)NO)=C\[C@@H](C)C(=O)c1ccc(N(C)C)cc1 [trichostatin A]
- FRET ratio in nuclei of treated cells compared to untreated cells [4]: larger FRET ratio

Molecule: O=C(CCCCCCC(=O)Nc1ccc([C@H]2O[C@@H](CSc3nc(-c4ccccc4)c(-c4ccccc4)o3)C[C@@H](c3ccc(CO)cc3)O2)cc1)NO [tubacin]
- FRET ratio in nuclei of treated cells compared to untreated cells [4]: larger FRET ratio

Molecule: Mitramycin
- FRET ratio as a function of drug concentration, with Mg [1]: FRET ratio increases as a function of drug concentration
- FRET ratio as a function of drug concentration, absence of Mg [1]: no change in the FRET ratio

Molecule: Tri-lysine [Ly-3]
- FRET ratio as a function of compound concentration [1]: increase the FRET ratio
